Source: US20250262211A1, “COMBINATION OF RAS INHIBITORS AND […] INHIBITORS FOR THE TREATMENT OF CANCERS” (INSTITUT NATIONAL DE LA SANTÉ ET DE LA RECHERCHE MÉDICALE, priority 2022, published 2025)

How the values were obtained:
Assay type in all cases: cell-based
[1] = tested on: Calu-1 KRAS (G12C)-mutant non-small cell lung cancer (NSCLC) cell line; experiment: FUCCI-transduced Calu-1 cells, response/relapse monitored by Incucyte during 50 days; conditions: Calu-1, 50 days
H23 cells (KRas G12C) = experiment: Cell confluency of H23 cells under treatment, Incucyte Live-Cell Analysis / amidoblack staining; conditions: drug used alone, 1 μM, 35 days
Experimental: FIG. 1. […] A. Cell confluency was measured twice a week over 35 days of indicated treatments. B. Amidoblack staining of a 6-well plate after 35 of indicated treatments.
Medium was changed twice a week and cell confluency was monitored by Incucyte® Live-Cell Analysis System.

[2] = tested on: H23 KRAS (G12C)-mutant non-small cell lung cancer (NSCLC) cell line; experiment: FUCCI-transduced H23 cells, response/relapse monitored by Incucyte during 50 days; conditions: H23, 50 days
[3] = 1 μM tipifarnib added to 1 μM sotorasib

SMILES | emergence of resistant proliferative clones (total cell number) ([1]; 1 μM sotorasib alone) | anti-tumor effect (cell confluency) (H23 cells (KRas G12C)) | emergence of resistant proliferative clones (total cell number) ([2]; 1 μM sotorasib alone) | cell cycle dynamics [1, 3] | emergence of resistant proliferative clones (total cell number) [1, 3] | cell cycle dynamics [2, 3] | emergence of resistant proliferative clones (total cell number) [2, 3]
C=CC(=O)N1CCN(c2nc(=O)n(-c3c(C)ccnc3C(C)C)c3nc(-c4c(O)cccc4F)c(F)cc23)[C@@H](C)C1 [sotorasib, 6-fluoro-7-(2-fluoro-6-hydroxyphenyl)-1-[4-methyl-2-(propan-2-yl)pyridin-3-yl]-4-[(2S)-2-methyl-4-(prop-2-enoyl)piperazin-1-yl]-1H,2H-pyrido[2,3-d]pyrimidin-2-one] | developed resistant proliferative clones (RPC) | did not show a significant anti-tumor effect | developed resistant proliferative clones (RPC) |  |  |  | 
Cn1cncc1[C@@](N)(c1ccc(Cl)cc1)c1ccc2c(c1)c(-c1cccc(Cl)c1)cc(=O)n2C [tipifarnib, (R)-6-[amino (4-chlorophenyl) (1-methyl-1H-imidazol-5-yl)methyl]-4-(3-chlorophenyl)-1-methyl-2 (1H)-quinolinone] |  | did not show a significant anti-tumor effect |  | strongly impacting cell cycle dynamics, resulting in cell death | prevented the emergence of RPC | strongly impacting cell cycle dynamics, resulting in cell death | prevented the emergence of RPC
